Experiments:
Test in all cases: relative viability (nuclei count vs DMSO), 5 days (fraction); higher = more cells survive
Neratinib + Luminespib = compound: CCOc1cc2ncc(C#N)c(Nc3ccc(OCc4ccccn4)c(Cl)c3)c2cc1NC(=O)/C=C/CN(C)C [Neratinib] + CCNC(=O)c1noc(-c2cc(C(C)C)c(O)cc2O)c1-c1ccc(CN2CCOCC2)cc1 [Luminespib] (partner 0.01 µM)
Outline: (§1)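 Lung cancer cell lines were pin-tool dosed in 1536-well plates on the day after seeding, with either a lone drug or a fixed anchor-drug dose plus five library-drug doses (not always all listed) in √10 steps. Nuclei were counted on 4× images after 5 days. Relative viability is the ratio of treated-well to vehicle-well nuclei counts, with each value a median of duplicate plates.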

Neratinib + Lapatinib = compound: CCOc1cc2ncc(C#N)c(Nc3ccc(OCc4ccccn4)c(Cl)c3)c2cc1NC(=O)/C=C/CN(C)C [Neratinib] + CS(=O)(=O)CCNCc1ccc(-c2ccc3ncnc(Nc4ccc(OCc5cccc(F)c5)c(Cl)c4)c3c2)o1 [Lapatinib] (partner 2 µM)
Outline: as §1

Neratinib + Decitabine = compound: CCOc1cc2ncc(C#N)c(Nc3ccc(OCc4ccccn4)c(Cl)c3)c2cc1NC(=O)/C=C/CN(C)C [Neratinib] + Nc1ncn([C@H]2C[C@H](O)[C@@H](CO)O2)c(=O)n1 [Decitabine] (partner 2 µM)
Outline: as §1

Neratinib + Olaparib = compound: CCOc1cc2ncc(C#N)c(Nc3ccc(OCc4ccccn4)c(Cl)c3)c2cc1NC(=O)/C=C/CN(C)C [Neratinib] + O=C(c1cc(Cc2n[nH]c(=O)c3ccccc23)ccc1F)N1CCN(C(=O)C2CC2)CC1 [Olaparib] (partner 8 µM)
Outline: as §1

| Cell Line | relative viability (Neratinib + Luminespib; first compound 0.03162 µM) | relative viability (Neratinib + Luminespib; first compound 0.1 µM) | relative viability (Neratinib + Luminespib; first compound 0.3162 µM) | relative viability (Neratinib + Luminespib; first compound 1 µM) | relative viability (Neratinib + Lapatinib; first compound 0.01 µM) | relative viability (Neratinib + Lapatinib; first compound 0.03162 µM) | relative viability (Neratinib + Lapatinib; first compound 0.1 µM) | relative viability (Neratinib + Lapatinib; first compound 0.3162 µM) | relative viability (Neratinib + Lapatinib; first compound 1 µM) | relative viability (Neratinib + Decitabine; first compound 0.01 µM) | relative viability (Neratinib + Decitabine; first compound 0.03162 µM) | relative viability (Neratinib + Decitabine; first compound 0.1 µM) | relative viability (Neratinib + Decitabine; first compound 0.3162 µM) | relative viability (Neratinib + Decitabine; first compound 1 µM) | relative viability (Neratinib + Olaparib; first compound 0.01 µM) | relative viability (Neratinib + Olaparib; first compound 0.03162 µM) | relative viability (Neratinib + Olaparib; first compound 0.1 µM) | relative viability (Neratinib + Olaparib; first compound 0.3162 µM) | relative viability (Neratinib + Olaparib; first compound 1 µM) | relative viability (Neratinib + Luminespib; first compound 0.01 µM) |
| --- | --- | --- | --- | --- | --- | --- | --- | --- | --- | --- | --- | --- | --- | --- | --- | --- | --- | --- | --- | --- |
| COR-L23 | 0.621 | 0.598 | 0.606 | 0.257 | 1.07 | 1.14 | 0.781 | 0.882 | 0.598 | 0.456 | 0.478 | 0.499 | 0.495 | 0.473 | 0.349 | 0.398 | 0.275 | 0.365 | 0.311 |  |
| NCI-H1944 | 0.669 |  | 0.523 | 0.306 | 1.17 | 0.845 | 0.732 | 0.836 | 0.705 | 0.458 | 0.482 | 0.423 | 0.389 | 0.39 | 0.45 | 0.406 | 0.229 | 0.352 | 0.319 |  |
| NCI-H3122 | 0.0884 | 0.119 | 0.102 | 0.11 | 1.05 | 1.05 | 0.884 | 1.03 | 0.601 | 0.365 | 0.544 | 0.488 | 0.457 | 0.364 | 0.609 | 0.699 | 0.571 | 0.617 | 0.587 | 0.103 |
| NCI-H1993 | 0.83 | 0.719 | 0.599 | 0.511 | 0.88 | 0.795 | 0.79 | 0.845 | 0.803 | 0.643 | 0.628 | 0.272 | 0.484 | 0.578 | 1.33 | 1.06 | 0.996 | 0.704 |  | 0.717 |
| EMC-BAC-2 | 1.17 | 1.08 | 0.976 | 0.597 | 1.03 | 0.965 | 0.826 | 0.856 | 0.864 | 1.12 | 1 | 0.942 | 0.988 | 0.929 | 0.521 | 0.481 | 0.501 | 0.528 | 0.45 | 1.38 |
| NCI-H1650 | 0.186 | 0.204 | 0.228 | 0.203 |  | 0.66 | 0.736 | 0.84 | 0.742 | 0.398 | 0.474 | 0.474 | 0.472 | 0.613 | 0.867 | 0.712 | 0.717 | 0.652 | 0.796 | 0.201 |
| NCI-H661 | 0.905 | 0.593 | 0.587 | 0.372 | 0.563 | 0.45 | 0.431 | 0.427 | 0.312 |  | 0.513 | 0.38 | 0.331 | 0.337 | 0.838 | 0.743 | 0.555 | 0.605 | 0.534 | 0.966 |
| LCLC-97TM1 | 0.837 | 0.762 | 0.684 | 0.589 | 1.29 | 1.01 | 1.02 | 0.637 | 0.275 | 0.258 | 0.251 | 0.276 |  | 0.215 | 0.31 | 0.437 | 0.329 |  | 0.234 | 0.823 |
| H3255 | 0.765 | 0.669 | 0.387 | 0.211 | 0.257 | 0.333 | 0.273 | 0.229 | 0.176 | 0.548 | 0.471 | 0.454 | 0.218 | 0.245 | 0.58 | 0.571 | 0.463 | 0.264 | 0.214 | 0.949 |
| LXF-289 | 0.805 |  | 0.695 | 0.453 |  | 0.964 | 0.809 | 0.924 | 0.937 | 0.382 | 0.396 | 0.39 | 0.349 | 0.421 | 1.12 | 1.28 | 0.931 | 1.06 | 0.889 | 0.726 |
| NCI-H647 | 0.128 | 0.0778 | 0.153 | 0.118 | 0.989 | 1.27 | 0.857 | 1 | 0.802 | 0.438 | 0.453 | 0.364 | 0.358 | 0.371 | 0.426 | 0.518 | 0.4 | 0.294 | 0.263 | 0.308 |
| LC-2-ad | 1.1 | 1.04 | 0.87 | 0.465 | 0.993 | 0.974 | 0.783 | 1.06 | 0.978 | 0.931 | 0.815 | 0.72 | 0.7 |  | 0.777 |  | 0.651 | 0.756 | 0.785 | 1.11 |
| SK-MES-1 | 0.437 | 0.428 | 0.267 | 0.187 | 0.512 | 0.479 | 0.393 | 0.435 | 0.364 | 0.401 | 0.403 | 0.3 | 0.299 | 0.221 | 0.807 | 0.778 | 0.631 | 0.264 | 0.233 | 1.08 |
| A-427 | 0.966 | 0.778 | 1.02 | 0.274 | 1.08 | 1.12 | 0.972 | 1 | 0.998 | 0.558 | 0.606 | 0.573 | 0.521 | 0.54 | 0.826 | 0.883 | 0.56 | 0.71 | 0.553 | 1.23 |
| NCI-H1975 | 0.174 | 0.311 | 0.123 | 0.186 | 1.09 | 0.972 | 0.609 | 0.403 | 0.191 | 0.36 | 0.444 | 0.351 | 0.346 | 0.19 | 0.917 | 0.96 | 0.644 | 0.43 | 0.18 | 0.289 |
| NCI-H1437 | 1.08 | 1 | 1.11 | 1.09 | 0.911 | 0.881 | 0.771 | 0.721 | 0.703 | 0.539 | 0.521 | 0.582 | 0.58 | 0.661 | 0.673 | 0.614 | 0.612 | 0.603 | 0.663 | 1.21 |

Source: the supplement of paper PMC10307832
